Results published in ChEMBL document CHEMBL1208728, “Design, synthesis, and structure-activity relationships of pyrazole derivatives as potential FabH inhibitors” (Bioorg Med Chem Lett, 2010).
In brackets after ≈: the same amount, converted by molar mass.

Experiments:
Bacillus subtilis = assay: Antimicrobial activity against Bacillus subtilis ATCC 6633 by MTT assay; type: functional
Staphylococcus aureus = assay: Antimicrobial activity against Staphylococcus aureus ATCC 6538 by MTT assay; type: functional
Enterococcus faecalis = assay: Antimicrobial activity against Streptococcus faecalis ATCC 9790 by MTT assay; type: functional
Pseudomonas aeruginosa = assay: Antimicrobial activity against Pseudomonas aeruginosa ATCC 13525 by MTT assay; type: functional
Escherichia coli = assay: Antimicrobial activity against Escherichia coli ATCC 35218 by MTT assay; type: functional
Enterobacter cloacae = assay: Antimicrobial activity against Enterobacter cloacae ATCC 13047 by MTT assay; type: functional
[1] = biological target: T1, 3-oxoacyl-[acyl-carrier-protein] synthase 3 (Escherichia coli, UniProt C3TDZ2); assay: Inhibition of Escherichia coli FabH
T1 sequence (C3TDZ2 whole entry): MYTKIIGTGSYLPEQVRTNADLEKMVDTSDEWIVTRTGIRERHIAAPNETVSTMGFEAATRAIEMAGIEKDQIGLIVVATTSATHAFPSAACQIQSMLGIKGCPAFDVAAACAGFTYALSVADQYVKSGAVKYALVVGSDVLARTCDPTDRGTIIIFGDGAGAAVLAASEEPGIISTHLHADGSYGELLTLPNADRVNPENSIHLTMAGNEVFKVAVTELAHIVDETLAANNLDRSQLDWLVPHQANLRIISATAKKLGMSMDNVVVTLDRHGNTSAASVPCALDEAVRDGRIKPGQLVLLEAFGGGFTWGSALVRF

[2] = Toxicity against RBC assessed as hemolysis; type: cell-based; settings: erythrocyte

| Compound | MIC (Bacillus subtilis) [mg/L] | MIC (Staphylococcus aureus) [mg/L] | MIC (Enterococcus faecalis) [mg/L] | MIC (Pseudomonas aeruginosa) [mg/L] | MIC (Escherichia coli) [mg/L] | MIC (Enterobacter cloacae) [mg/L] | IC50 [1] [µM] | LC30 [2] [mg/L] |
| --- | --- | --- | --- | --- | --- | --- | --- | --- |
| COc1ccc(C2=NN(C(C)=O)C(c3ccc(C)cc3)C2)cc1 (configuration not stated) | 25 (≈ 81.1 µM) | 6.25 (≈ 20.3 µM) | 25 (≈ 81.1 µM) | 12.5 (≈ 40.5 µM) | 6.25 (≈ 20.3 µM) | 3.12 (≈ 10.1 µM) | 17.3 | > 10000 |
| CC(=O)N1N=C(c2ccc(Br)cc2)CC1c1ccc(C)cc1 (configuration not stated) | 25 (≈ 70 µM) | 6.25 (≈ 17.5 µM) | 50 (≈ 140 µM) | 1.56 (≈ 4.37 µM) | 25 (≈ 70 µM) | 6.25 (≈ 17.5 µM) | – | – |
| COc1ccc(C2=NN(C(C)=O)C(c3ccc(OC)cc3)C2)cc1 (configuration not stated) | 6.25 (≈ 19.3 µM) | 6.25 (≈ 19.3 µM) | 12.5 (≈ 38.5 µM) | > 50 | 3.12 (≈ 9.63 µM) | 12.5 (≈ 38.5 µM) | 19.6 | > 10000 |
| CC(=O)N1N=C(c2ccc(Cl)c(Cl)c2)CC1c1ccc(Cl)cc1 (configuration not stated) | 0.78 (≈ 2.12 µM) | 25 (≈ 68 µM) | 6.25 (≈ 17 µM) | 25 (≈ 68 µM) | 25 (≈ 68 µM) | > 50 | – | – |
| CC(=O)N1N=C(c2ccccc2F)CC1c1ccc(C)cc1 (configuration not stated) | 25 (≈ 84.4 µM) | > 50 | 25 (≈ 84.4 µM) | > 50 | 25 (≈ 84.4 µM) | 12.5 (≈ 42.2 µM) | – | – |
| CC(=O)N1N=C(c2ccc(Cl)cc2)CC1c1ccccc1 (configuration not stated) | 12.5 (≈ 41.8 µM) | > 50 | 25 (≈ 83.7 µM) | > 50 | 25 (≈ 83.7 µM) | 12.5 (≈ 41.8 µM) | – | – |
| CC(=O)N1N=C(c2ccc(Cl)cc2)CC1c1ccc(Br)cc1 (configuration not stated) | 6.25 (≈ 16.5 µM) | 25 (≈ 66.2 µM) | 6.25 (≈ 16.5 µM) | > 50 | 12.5 (≈ 33.1 µM) | > 50 | – | – |
| CC(=O)N1N=C(c2ccccc2)CC1c1ccc(C)cc1 (configuration not stated) | > 50 | > 50 | 6.25 (≈ 22.5 µM) | 12.5 (≈ 44.9 µM) | 25 (≈ 89.8 µM) | 25 (≈ 89.8 µM) | – | – |
| COc1cc(OC)cc(C2CC(c3ccc(Br)cc3)=NN2C(C)=O)c1 (configuration not stated) | 50 (≈ 124 µM) | 6.25 (≈ 15.5 µM) | 25 (≈ 62 µM) | 3.12 (≈ 7.75 µM) | 50 (≈ 124 µM) | 12.5 (≈ 31 µM) | – | – |
| CC(=O)N1N=C(c2ccc(Br)cc2)CC1c1ccccc1Cl (configuration not stated) | 25 (≈ 66.2 µM) | 25 (≈ 66.2 µM) | 50 (≈ 132 µM) | 6.25 (≈ 16.5 µM) | 12.5 (≈ 33.1 µM) | 3.12 (≈ 8.27 µM) | – | – |
| COc1ccc(C2CC(c3ccc(Br)cc3)=NN2C(C)=O)cc1 (configuration not stated) | 25 (≈ 67 µM) | 12.5 (≈ 33.5 µM) | 6.25 (≈ 16.7 µM) | 1.56 (≈ 4.18 µM) | 50 (≈ 134 µM) | 3.12 (≈ 8.37 µM) | – | – |
| COc1ccc(C2=NN(C(C)=O)C(c3ccc(F)cc3)C2)cc1 (configuration not stated) | 6.25 (≈ 20 µM) | 6.25 (≈ 20 µM) | 1.56 (≈ 5 µM) | 12.5 (≈ 40 µM) | 0.39 (≈ 1.25 µM) | 12.5 (≈ 40 µM) | 4.2 | > 10000 |
| CC(=O)N1N=C(c2ccc(Cl)cc2)CC1c1ccc(Cl)cc1 (configuration not stated) | 12.5 (≈ 37.5 µM) | 25 (≈ 75 µM) | 6.25 (≈ 18.8 µM) | 6.25 (≈ 18.8 µM) | 12.5 (≈ 37.5 µM) | 25 (≈ 75 µM) | – | – |
| COc1ccc(C2=NN(C(C)=O)C(c3cc(OC)cc(OC)c3)C2)cc1 (configuration not stated) | 6.25 (≈ 17.6 µM) | 12.5 (≈ 35.3 µM) | 50 (≈ 141 µM) | 12.5 (≈ 35.3 µM) | 12.5 (≈ 35.3 µM) | 6.25 (≈ 17.6 µM) | – | – |
| CC(=O)N1N=C(c2ccccc2)CC1c1ccccc1Cl (configuration not stated) | 25 (≈ 83.7 µM) | > 50 | 25 (≈ 83.7 µM) | 25 (≈ 83.7 µM) | > 50 | 25 (≈ 83.7 µM) | – | – |
| CC(=O)N1N=C(c2ccc(Cl)c(Cl)c2)CC1c1ccc(C)cc1 (configuration not stated) | 6.25 (≈ 18 µM) | > 50 | 12.5 (≈ 36 µM) | 25 (≈ 72 µM) | > 50 | 25 (≈ 72 µM) | – | – |
| COc1cc(OC)cc(C2CC(c3ccccc3F)=NN2C(C)=O)c1 (configuration not stated) | 6.25 (≈ 18.3 µM) | 25 (≈ 73 µM) | 12.5 (≈ 36.5 µM) | 12.5 (≈ 36.5 µM) | 12.5 (≈ 36.5 µM) | > 50 | – | – |
| COc1ccc(C2CC(c3ccc(Cl)c(Cl)c3)=NN2C(C)=O)cc1 (configuration not stated) | 3.12 (≈ 8.6 µM) | 25 (≈ 68.8 µM) | 6.25 (≈ 17.2 µM) | 12.5 (≈ 34.4 µM) | > 50 | 25 (≈ 68.8 µM) | – | – |
| COc1ccc(C2=NN(C(C)=O)C(c3ccccc3Cl)C2)cc1 (configuration not stated) | 25 (≈ 76 µM) | > 50 | 12.5 (≈ 38 µM) | > 50 | 6.25 (≈ 19 µM) | 6.25 (≈ 19 µM) | 31.4 | > 10000 |
| COc1ccc(C2=NN(C(C)=O)C(c3ccccc3)C2)cc1 (configuration not stated) | 6.25 (≈ 21.2 µM) | > 50 | 50 (≈ 170 µM) | 12.5 (≈ 42.5 µM) | 25 (≈ 84.9 µM) | > 50 | 46.7 | > 10000 |
| CC(=O)N1N=C(c2ccc(Cl)c(Cl)c2)CC1c1ccc(F)cc1 (configuration not stated) | 1.56 (≈ 4.45 µM) | 12.5 (≈ 35.6 µM) | 1.56 (≈ 4.45 µM) | 12.5 (≈ 35.6 µM) | 12.5 (≈ 35.6 µM) | 12.5 (≈ 35.6 µM) | – | – |
| COc1ccc(C2=NN(C(C)=O)C(c3ccc(Br)cc3)C2)cc1 (configuration not stated) | 12.5 (≈ 33.5 µM) | 12.5 (≈ 33.5 µM) | 3.12 (≈ 8.37 µM) | 12.5 (≈ 33.5 µM) | 1.56 (≈ 4.18 µM) | > 50 | 10.4 | > 10000 |
| COc1ccc(C2=NN(C(C)=O)C(c3ccc(Cl)cc3)C2)cc1 (configuration not stated) | 6.25 (≈ 19 µM) | 25 (≈ 76 µM) | 6.25 (≈ 19 µM) | 25 (≈ 76 µM) | 0.78 (≈ 2.37 µM) | 25 (≈ 76 µM) | 7.6 | > 10000 |
